# According to patent publication US9708334B2, “Substituted 2,4,5,6-tetrahydropyrrolo[3,4-c]pyrazole and 4,5,6,7-tetrahydro-2H-pyrazolo[4,3-c]pyridine compounds as GlyT1 inhibitors” (DART NEUROSCIENCE (CAYMAN) LTD., priority 2014, dated 2017):
# Molecular target: T1, GlyT1 (Homo sapiens, UniProt P48067)
# T1 construct: expressed in transfected cells
# T1 sequence (P48067 1-706): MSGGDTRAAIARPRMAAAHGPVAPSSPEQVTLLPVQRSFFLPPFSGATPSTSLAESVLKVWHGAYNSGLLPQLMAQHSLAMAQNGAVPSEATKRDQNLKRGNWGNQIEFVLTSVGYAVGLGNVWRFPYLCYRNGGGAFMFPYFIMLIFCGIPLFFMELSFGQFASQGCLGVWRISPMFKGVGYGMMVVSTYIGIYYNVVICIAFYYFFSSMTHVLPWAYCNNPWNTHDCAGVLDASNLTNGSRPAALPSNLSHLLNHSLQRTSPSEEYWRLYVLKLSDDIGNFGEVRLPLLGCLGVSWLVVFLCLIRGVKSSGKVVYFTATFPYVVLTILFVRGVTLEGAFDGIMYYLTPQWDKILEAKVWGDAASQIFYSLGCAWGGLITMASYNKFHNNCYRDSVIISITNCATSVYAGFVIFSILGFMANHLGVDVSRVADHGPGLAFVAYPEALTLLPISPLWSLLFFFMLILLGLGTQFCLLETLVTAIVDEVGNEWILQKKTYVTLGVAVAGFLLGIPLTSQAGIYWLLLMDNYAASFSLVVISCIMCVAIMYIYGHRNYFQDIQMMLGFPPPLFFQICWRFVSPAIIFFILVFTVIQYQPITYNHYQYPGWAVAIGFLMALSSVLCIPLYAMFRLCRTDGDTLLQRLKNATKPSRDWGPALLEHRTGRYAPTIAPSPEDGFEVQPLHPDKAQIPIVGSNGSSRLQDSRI
# Assay: Glycine Transporter 1 (GlyT1) uptake assay, scintillation proximity assay of [14C]-glycine uptake
# Assay type: cell-based
# Conditions: SPA, four parameter logistic fit, read-out: GlyT1 (pIC50) (converted)
# Method in brief: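 IC50 values derive from four-parameter logistic curves fitted to dose-response data. Uptake of [14C]-glycine measured in scintillation proximity format.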
row,IC50,Compound
1,100 to 1000 nM,"COc1ccc(-n2cc3c(n2)CCN(C(=O)c2c(OC(C)C(F)(F)F)ccc(C#N)c2OC)C3)cc1 (stereo not drawn) [Example 207, 2-Methoxy-3-[2-(4-methoxyphenyl)-2H 4H 5H 6H 7H-pyrazolo[4,3-c]pyridine-5-carbonyl]-4-[(1 1 1-trifluoropropan-2-yl)oxy]benzonitrile]"
2,1000 to 10000 nM,CCC(F)(CC)c1ccc(C#N)c(OC)c1C(=O)N1CCc2nn(-c3ccc(F)cc3)cc2C1 [Example 208]
3,< 100 nM,"COc1c(C#N)ccc(OC(C)C(F)(F)F)c1C(=O)N1CCc2c(cnn2-c2ccc(F)cn2)C1 (stereo not drawn) [Example 209, 3-[1-(5-Fluoropyridin-2-yl)-1H 4H 5H 6H 7H-pyrazolo[4,3-c]pyridine-5-carbonyl]-2-methoxy-4-[(1 1 1-trifluoropropan-2-yl)oxy]benzonitrile]"
4,< 100 nM,"CC(Oc1ccc(C#N)c(Cl)c1C(=O)N1CCc2c(cnn2-c2ccc(F)cn2)C1)C(F)(F)F (stereo not drawn) [Example 210, 2-Chloro-3-[1-(5-fluoropyridin-2-yl)-1H 4H 5H 6H 7H-pyrazolo[4,3-c]pyridine-5-carbonyl]-4-[(1 1 1-trifluoropropan-2-yl)oxy]benzonitrile]"
5,100 to 1000 nM,"CC(Oc1ccc(C#N)c(Cl)c1C(=O)N1CCc2nn(-c3cccnc3)cc2C1)C(F)(F)F (stereo not drawn) [Example 211, 2-Chloro-3[2-(pyridin-3-yl)-2H 4H 5H 6H 7H-pyrazolo[4,3-c]pyridine-5-carbonyl]-4-[(1 1 1-trifluoropropan-2-yl)oxy]benzonitrile]"
6,100 to 1000 nM,"COc1c(C#N)ccc(C2(F)CCC2)c1C(=O)N1CCc2nn(-c3ccc(F)cn3)cc2C1 [Example 212, 4-(1-Fluorocyclobutyl)-3-[2-(5-fluoropyridin-2-yl)-2H 4H 5H 6H 7H-pyrazolo[4,3-c]pyridine-5-carbonyl]-2-methoxybenzonitrile]"
7,< 100 nM,"COc1c(C#N)ccc(OC(C)C(F)(F)F)c1C(=O)N1CCc2nn(-c3cccnc3)cc2C1 (stereo not drawn) [Example 213, 2-Methoxy-3-[2-(pyridin-3-yl)-2H 4H 5H 6H 7H-pyrazolo[4,3-c]pyridine-5-carbonyl]-4-[(1 1 1-trifluoropropan-2-yl)oxy]benzonitrile]"
8,100 to 1000 nM,"CC(Oc1ccc(C#N)c(Cl)c1C(=O)N1CCc2c(cnn2C2CCCCC2)C1)C(F)(F)F (stereo not drawn) [Example 214, 2-Chloro-3-{1-cyclohexyl-1H 4H 5H 6H 7H-pyrazolo[4,3-c]pyridine-5-carbonyl}-4-[(1 1 1-trifluoropropan-2-yl)oxy]benzonitrile.]"
9,< 100 nM,"COc1c(C#N)ccc(OC(C)C(F)(F)F)c1C(=O)N1CCc2c(cnn2C2CCCCC2)C1 (stereo not drawn) [Example 215, 3-{1-Cyclohexyl-1H 4H 5H 6H 7H-pyrazolo[4,3-c]pyridine-5-carbonyl}-2-methoxy-4-[(1 1 1-trifluoropropan-2-yl)oxy]benzonitrile]"
10,100 to 1000 nM,"CC(Oc1ccc(C#N)c(Cl)c1C(=O)N1CCc2nn(-c3ccccn3)cc2C1)C(F)(F)F (stereo not drawn) [Example 216, 2-Chloro-3-[2-(pyridin-2-yl)-2H 4H 5H 6H 7H-pyrazolo[4,3-c]pyridine-5-carbonyl]-4-[(1 1 1-trifluoropropan-2-yl)oxy]benzonitrile]"
11,100 to 1000 nM,"COc1c(C#N)ccc(OC(C)C(F)(F)F)c1C(=O)N1CCc2nn(-c3ccccn3)cc2C1 (stereo not drawn) [Example 217, 2-Methoxy-3-[2-(pyridin-2-yl)-2H 4H 5H 6H 7H-pyrazolo[4,3-c]pyridine-5-carbonyl]-4-[(1 1 1-trifluoropropan-2-yl)oxy]benzonitrile]"
12,< 100 nM,"COc1c(C#N)ccc(OC(C)C(F)(F)F)c1C(=O)N1CCc2c(cnn2-c2cccnc2)C1 (stereo not drawn) [Example 218, 2-Methoxy-3-[1-(pyridin-3-yl)-1H 4H 5H 6H 7H-pyrazolo[4,3-c]pyridine-5-carbonyl]-4-[(1 1 1-trifluoropropan-2-yl)oxy]benzonitrile]"
13,< 100 nM,"CC(Oc1ccc(C#N)c(Cl)c1C(=O)N1CCc2nn(-c3ccncc3)cc2C1)C(F)(F)F (stereo not drawn) [Example 219, 2-Chloro-3-[2-(pyridin-4-yl)-2H 4H 5H 6H 7H-pyrazolo[4,3-c]pyridine-5-carbonyl]-4-[(1 1 1-trifluoropropan-2-yl)oxy]benzonitrile]"
14,< 100 nM,"COc1c(C#N)ccc(OC(C)C(F)(F)F)c1C(=O)N1CCc2nn(-c3ccncc3)cc2C1 (stereo not drawn) [Example 220, 2-Methoxy-3-[2-(pyridin-4-yl)-2H 4H 5H 6H 7H-pyrazolo[4,3-c]pyridine-5-carbonyl]-4-[(1 1 1-trifluoropropan-2-yl)oxy]benzonitrile]"
15,100 to 1000 nM,"COc1c(C#N)ccc(OC(C)C(F)(F)F)c1C(=O)N1CCc2c(cnn2C2CCOCC2)C1 (stereo not drawn) [Example 221, 2-Methoxy-3-[1-(oxan-4-yl)-1H 4H 5H 6H 7H-pyrazolo[4,3-c]pyridine-5-carbonyl]-4-[(1 1 1-trifluoropropan-2-yl)oxy]benzonitrile]"
16,100 to 1000 nM,"C[C@H](Oc1ccc(C#N)c(Cl)c1C(=O)N1CCc2nn(-c3ccc(F)cn3)cc2C1)C(F)(F)F [Example 222, 2-Chloro-3-[2-(5-fluoropyridin-2-yl)-2H 4H 5H 6H 7H-pyrazolo[4,3-c]pyridine-5-carbonyl]-4-{[(2S)-1 1 1-trifluoropropan-2-yl]oxy}benzonitrile]"
17,1000 to 10000 nM,"N#Cc1ccc(OCC(F)(F)F)c(C(=O)N2CCc3nn(-c4ccc(F)cc4)cc3C2)c1Cl [Example 223, 2-Chloro-3-[2-(4-fluorophenyl)-2H 4H 5H 6H 7H-pyrazolo[4,3-c]pyridine-5-carbonyl]-4-(2 2 2-trifluoroethoxy)benzonitrile]"
18,1000 to 10000 nM,"N#Cc1ccc(OCC(F)(F)F)c(C(=O)N2CCc3nn(-c4ccc(F)cn4)cc3C2)c1Cl [Example 224, 2-Chloro-3-[2-(5-fluoropyridin-2-yl)-2H 4H 5H 6H 7H-pyrazolo[4,3-c]pyridine-5-carbonyl]-4-(2 2 2-trifluoroethoxy)benzonitrile]"
19,100 to 1000 nM,"COc1c(C#N)ccc(O[C@@H](C)C(F)(F)F)c1C(=O)N1CCc2nn(-c3ccc(F)cn3)cc2C1 [Example 225, 3-[2-(5-Fluoropyridin-2-yl)-2H 4H 5H 6H 7H-pyrazolo[4,3-c]pyridine-5-carbonyl]-2-methoxy-4-{[(2S)-1 1 1-trifluoropropan-2-yl]oxy}benzonitrile]"
20,< 100 nM,"Cc1cc(-n2cc3c(n2)CCN(C(=O)c2c(OC(C)C(F)(F)F)ccc(C#N)c2Cl)C3)ccn1 (stereo not drawn) [Example 226, 2-Chloro-3-[2-(2-methylpyridin-4-yl)-2H 4H 5H 6H 7H-pyrazolo[4,3-c]pyridine-5-carbonyl]-4-[(1 1 1-trifluoropropan-2-yl)oxy]benzonitrile]"
21,< 100 nM,"COc1c(C#N)ccc(OC(C)C(F)(F)F)c1C(=O)N1CCc2nn(-c3ccnc(C)c3)cc2C1 (stereo not drawn) [Example 227, 2-Methoxy-3-[2-(2-methylpyridin-4-yl)-2H 4H 5H 6H 7H-pyrazolo[4,3-c]pyridine-5-carbonyl]-4-[(1 1 1-trifluoropropan-2-yl)oxy]benzonitrile]"
22,100 to 1000 nM,"CC(Oc1ccc(C#N)c(Cl)c1C(=O)N1CCc2nn(-c3ccc(Cl)cn3)cc2C1)C(F)(F)F (stereo not drawn) [Example 228, 2-Chloro-3-[2-(5-chloropyridin-2-yl)-2H 4H 5H 6H 7H-pyrazolo[4,3-c]pyridine-5-carbonyl]-4-[(1 1 1-trifluoropropan-2-yl)oxy]benzonitrile]"
23,100 to 1000 nM,"COc1c(C#N)ccc(OC(C)C(F)(F)F)c1C(=O)N1CCc2nn(-c3ccc(Cl)cn3)cc2C1 (stereo not drawn) [Example 229, 3-[2-(5-Chloropyridin-2-yl)-2H 4H 5H 6H 7H-pyrazolo[4,3-c]pyridine-5-carbonyl]-2-methoxy-4-[(1 1 1-trifluoropropan-2-yl)oxy]benzonitrile]"
24,100 to 1000 nM,"COc1ncc(F)cc1-n1cc2c(n1)CCN(C(=O)c1c(OC(C)C(F)(F)F)ccc(C#N)c1Cl)C2 (stereo not drawn) [Example 230, 2-Chloro-3-[2-(5-fluoro-2-methoxypyridin-3-yl)-2H 4H 5H 6H 7H-pyrazolo[4,3-c]pyridine-5-carbonyl]-4-[(1 1 1-trifluoropropan-2-yl)oxy]benzonitrile]"
25,< 100 nM,"COc1ncc(F)cc1-n1cc2c(n1)CCN(C(=O)c1c(OC(C)C(F)(F)F)ccc(C#N)c1OC)C2 (stereo not drawn) [Example 231, 3-[2-(5-Fluoro-2-methoxypyridin-3-yl)-2H 4H 5H 6H 7H-pyrazolo[4,3-c]pyridine-5-carbonyl]-2-methoxy-4-[(1 1 1-trifluoropropan-2-yl)oxy]benzonitrile]"
26,100 to 1000 nM,"CC(Oc1ccc(C#N)c(Cl)c1C(=O)N1CCc2nn(-c3ncc(F)cc3F)cc2C1)C(F)(F)F (stereo not drawn) [Example 232, 2-Chloro-3-[2-(3 5-difluoropyridin-2-yl)-2H 4H 5H 6H 7H-pyrazolo[4,3-c]pyridine-5-carbonyl]-4-[(1 1 1-trifluoropropan-2-yl)oxy]benzonitrile]"
27,100 to 1000 nM,"COc1c(C#N)ccc(OC(C)C(F)(F)F)c1C(=O)N1CCc2nn(-c3ncc(F)cc3F)cc2C1 (stereo not drawn) [Example 233, 3-[2-(3 5-Difluoropyridin-2-yl)-2H 4H 5H 6H 7H-pyrazolo[4,3-c]pyridine-5-carbonyl]-2-methoxy-4-[(1 1 1-trifluoropropan-2-yl)oxy]benzonitrile]"
